What follows are compounds tested against T1, HER-2/ErbB2 kinase (Homo sapiens, UniProt P04626) (assay: HER-2 Kinase Assay (ELISA)). Details: 20 μM ATP, 25° C. 60 minutes.
T1 construct: purchased Invitrogen corporation #PV3366
Format: biochemical
Experimental: An enzyme linked immunosorbent assays (ELISA) was conducted to measure the kinase activity of HER-2 in vitro.
a. Wash Buffer (PBS-T Buffer): 1×PBS (137 mM NaCl; 2.7 mM KCl, 4.3 mM Na2HPO4, 1.4 mM KH2PO4, adjust the pH to 7.2) and 0.05% Tween-20.
b. 1% Bovine Serum Albumin (BSA, Calbiochem #136593) in PBS-T.
c. Stop Buffer: 50 mM EDTA, pH 8.0.
d. DELFIA® Europium-labeled Anti-mouse IgG (PerkinElmer Life Sciences #AD0124).
e. DELFIA® Enhancement Solution (PerkinElmer Life Sciences #1244-105).
f. DELFIA® Streptavidin coated, 96-well, yellow plate (PerkinElmer Life Sciences #AAAND-0005).
g. HER-2/ErbB2 kinase (Invitrogen corporation #PV3366).
h. 10 mM ATP solution (Cell signaling technology #9804).
i. FLT3 (Tyr589) Biotinylated Peptide (Cell signaling technology #1305).
j. Phospho-Tyrosine Mouse mAb (P-Tyr-100) (Cell signaling technology #9411).
k. HTScan™ Tyrosine Kinase Buffer (4×)
(Cell signaling technology #9805).
l. 1.25 M DTT (1000×) (Cell signaling technology).
The following protocol was used:
1. Dilute test compound with DMSO to the desired final assay concentration. Add 1 μl test compound for every assay, to the negative control.
2. Dilute 6 μM substrate peptide (Tyr589) 1:1 with dH2O, add 15 μl to every assay.
3. Immediately transfer HER-2 enzyme from −80° C. to ice. Allow enzyme to thaw on ice.
4. Take 4.5 μg HER-2 enzyme to the enzyme tube.
5. Add 10 μl of DTT (1.25 M) to 2.5 ml of 4×HTScan™ Tyrosine Kinase Buffer (240 mM HEPES pH 7.5, 20 mM MgCl2, 20 mM MnCl2, 12 μM Na3VO4) to make DTT/Kinase buffer.
6. Transfer 0.75 ml of DTT/Kinase buffer to each enzyme tube to make 4× reaction cocktail. Add 7.5 μl 4× reaction cocktail to every assay.
7. Add 4 μl ATP (10 mM) to 496 μl dH2O, take 7.5 μl for every assay. Final Assay Conditions for a 30 μl Reaction
Incubate reaction tube at 25° C. for 60 minutes. 9. Add 30 μl/assay stop buffer (50 mM EDTA, pH 8.0) to stop the reaction. 10. Transfer 25 μl of each reaction and 75 μl dH2O/well to a 96-well streptavidin coated plate and incubate, with shaking at room temperature for 60 minutes. 11. Wash three times with 200 μl/well PBS-T buffer. Pat plate on paper towel to remove excess liquid. 12. Dilute primary antibody, Phospho-Tyrosine mAb (P-Tyr-100), 1:1000 in PBS-T buffer with 1% BSA. Add 100 μl diluted primary antibody to each well. 13. Incubate, with shaking at room temperature for 60 minutes. 14. Wash as described above in step 11. 15. Dilute Europium labeled anti-mouse IgG 1:500 in PBS-T buffer with 1% BSA. Add 100 μl diluted antibody to each well. 16. Incubate, with shaking at room temperature for 30 minutes. 17. Wash five times with 200 μl/well PBS-T buffer. Pat plate on paper towel to remove excess liquid. 18. Add 100 μl/well DELFIA® Enhancement Solution. 19. Incubate, with shaking at room temperature for 5 minutes. 20. Detect 615 nm fluorescence emission with appropriate Time-Resolved Plate Reader.
Calculate the inhibition rate: IR (%)=100−100*(X−B)/(N−B)
X=the fluorescence value of the well contained test compound
The IC50 value can be derived from the IRs of compounds at different concentration gradients.

T1 sequence (P04626 23-1255): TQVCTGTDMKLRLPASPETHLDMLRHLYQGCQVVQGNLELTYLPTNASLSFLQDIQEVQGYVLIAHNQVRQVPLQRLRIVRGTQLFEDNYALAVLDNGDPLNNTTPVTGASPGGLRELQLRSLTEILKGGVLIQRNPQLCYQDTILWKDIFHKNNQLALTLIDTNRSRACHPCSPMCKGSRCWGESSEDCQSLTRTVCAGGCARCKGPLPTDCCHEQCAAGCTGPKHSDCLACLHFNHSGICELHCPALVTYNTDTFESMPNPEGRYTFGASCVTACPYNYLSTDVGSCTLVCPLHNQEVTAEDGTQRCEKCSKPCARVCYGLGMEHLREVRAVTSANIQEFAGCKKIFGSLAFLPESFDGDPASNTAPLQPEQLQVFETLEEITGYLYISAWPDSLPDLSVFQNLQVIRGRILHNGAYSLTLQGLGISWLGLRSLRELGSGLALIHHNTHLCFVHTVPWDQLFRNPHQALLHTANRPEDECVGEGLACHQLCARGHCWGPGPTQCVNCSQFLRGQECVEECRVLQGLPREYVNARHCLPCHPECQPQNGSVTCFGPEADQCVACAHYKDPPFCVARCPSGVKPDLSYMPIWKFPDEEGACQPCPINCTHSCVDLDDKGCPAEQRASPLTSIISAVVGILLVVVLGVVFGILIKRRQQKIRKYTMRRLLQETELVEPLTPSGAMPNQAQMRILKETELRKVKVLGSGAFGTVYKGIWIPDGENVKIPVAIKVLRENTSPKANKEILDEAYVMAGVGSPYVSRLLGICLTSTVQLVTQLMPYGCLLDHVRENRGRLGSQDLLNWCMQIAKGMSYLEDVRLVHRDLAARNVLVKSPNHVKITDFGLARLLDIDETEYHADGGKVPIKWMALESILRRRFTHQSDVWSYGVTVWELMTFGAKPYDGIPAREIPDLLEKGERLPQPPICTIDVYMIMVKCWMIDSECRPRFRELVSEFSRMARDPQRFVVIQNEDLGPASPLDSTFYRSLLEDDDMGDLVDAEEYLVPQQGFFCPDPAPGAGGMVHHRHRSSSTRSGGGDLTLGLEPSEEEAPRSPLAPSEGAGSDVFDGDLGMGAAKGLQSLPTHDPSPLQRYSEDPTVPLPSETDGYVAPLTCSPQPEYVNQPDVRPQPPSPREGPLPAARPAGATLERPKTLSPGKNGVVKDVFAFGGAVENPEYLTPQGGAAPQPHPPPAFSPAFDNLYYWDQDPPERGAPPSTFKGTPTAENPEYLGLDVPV

| Structure (SMILES) | IC50 [nM] |
| --- | --- |
| CCN(CC)CCN1CCc2[nH]c(/C=C3\C(=O)Nc4ncnc(Nc5ccc(F)c(Cl)c5)c43)c(C)c2C1=O [Example 12, 4-(3-Chlor O-4-fluoro-phenylamino)-5-[5-(2-diethylamino-ethyl)-3-methyl-4-oxo-4,5,6,7-tetrahydro-1H-pyrrolo[3,2-c]pyridine-2-ylmethylene]-5,7-dihydro-pyrrolo[2,3-d]pyrimidin-6-one] | 90 |
| Cc1c(/C=C2\C(=O)Nc3ncnc(Nc4ccc(F)c(Cl)c4)c32)[nH]c2c1C(=O)N(CCN1CCOCC1)CC2 [Example 24, 4-(3-Chloro-4-fluoro-phenylamino)-5-[3-methyl-5-(2-morpholin-4-yl-ethyl)-4-oxo-4,5,6,7-tetrahydro-1H-pyrrolo[3,2-c]pyridine-2-ylmethylenene]-5,7-dihydro-pyrrolo[2,3-d]pyrimidin-6-one] | 830 |
| CCN(CC)CCN1CCc2[nH]c(/C=C3\C(=O)Nc4cccc(C5CCNCC5)c43)c(C)c2C1=O [Example 31, 5-(2-Diethylamino-ethyl)-3-methyl-2-(2-oxo-4-piperidin-4-yl-1,2-dihydro-indol-3-ylidenemethyl)-1,5,6,7-tetrahydro-pyrrolo[3,2-c]pyridin-4-one] | 980 |
| CCN(CC)CCN1CCc2[nH]c(/C=C3\C(=O)Nc4cccc(-c5cccc(F)c5F)c43)c(C)c2C1=O [Example 39, 5-(2-diethylamino-ethyl)-2-[4-(2,3-difluoro-phenyl)-2-oxo-1,2-dihydro-indol-3-ylidenemethyl]-3-methyl-1,5,6,7-tetrahydro-pyrrolo[3,2-c]pyridin-4-one] | 270 |
| Cc1c(/C=C2\C(=O)Nc3cccc(CCO)c32)[nH]c2c1C(=O)N(CCN1CCOCC1)CC2 [Example 42, 2-[4-(2-Hydroxy-ethyl)-2-oxo-1,2-dihydro-indol-3-ylidenemethyl]-3-methyl-5-(2-morpholin-4-yl-ethyl)-1,5,6,7-tetrahydro-pyrrolo[3,2-c]pyridin-4-one] | 41100 |
| Cc1c(/C=C2\C(=O)Nc3cccc(C4CCNCC4)c32)[nH]c2c1C(=O)N(CCN1CCOCC1)CC2 [Example 52, 3-Methyl-5-(2-morpholin-4-yl-ethyl)-2-(2-oxo-4-piperidin-4-yl-1,2-dihydro-indol-3-ylidenemethyl)-1,5,6,7-tetrahydro-pyrrolo[3,2-c]pyridin-4-one] | 8320 |
| Cc1c(/C=C2\C(=O)Nc3cccc(-c4cccc(F)c4F)c32)[nH]c2c1C(=O)N(CCN1CCCC1)CC2 [Example 59, 2-[4-(2,3-Difluoro-phenyl)-2-oxo-1,2-dihydro-indol-3-ylidenemethyl]-3-methyl-5-(2-pyrrolidin-1-yl-ethyl)-1,5,6,7-tetrahydro-pyrrolo[3,2-c]pyridin-4-one] | 720 |

— US8697692B2, “Pyrrolo [3,2-c] pyridine-4-one 2-indolinone protein kinase inhibitors” (Shanghai Hengrui Pharmaceutical Co., Ltd., priority 2006, dated 2014)
